Series [1] is described as follows: Critical micelle concentration by drop-shape analysis. Format: physicochemical.
For series [2], the target named is Guanine nucleotide-binding protein G(i) subunit alpha-1 (Homo sapiens) (UniProt P63096). Kind of series: Activation of human Gi protein alpha1 subunit expressed in Escherichia coli assessed as protein bound [35S]GTPgammaS levels by scintillation spectroscopy. In kind it is functional. (In general: GTPγS is a poorly hydrolysed GTP analogue; its binding reports G protein activation.)

The target is the same in series [3]. Briefly: Activation of human Gi protein alpha1 subunit expressed in Escherichia coli assessed as protein bound [35S]GTPgammaS levels at 1 uM by scintillation spectroscopy. In kind it is functional.
The target is the same in series [4]. Briefly: Activation of human Gi protein alpha1 subunit expressed in Escherichia coli assessed as protein bound [35S]GTPgammaS levels at 10 uM by scintillation spectroscopy. In kind it is functional.
Series [5] has the same target. Briefly: Activation of human Gi protein alpha1 subunit expressed in Escherichia coli assessed as protein bound [35S]GTPgammaS levels at 10 uM by scintillation spectroscopy relative to basal. In kind it is functional.
For series [6] the target is unchanged. Briefly: Activation of human Gi protein alpha1 subunit expressed in Escherichia coli assessed as protein bound [35S]GTPgammaS levels at 50 uM by scintillation spectroscopy. Format: functional.
Series [7] shares this target. Briefly: Activation of human Gi protein alpha1 subunit expressed in Escherichia coli assessed as protein bound [35S]GTPgammaS levels at 5 uM by scintillation spectroscopy. Format: functional.
The target of series [8] is Guanine nucleotide-binding protein G(o) subunit alpha (Homo sapiens) (UniProt P09471). Kind of series: Activation of human Go protein alpha subunit expressed in Escherichia coli assessed as protein bound [35S]GTPgammaS levels at 1 uM by scintillation spectroscopy. In kind it is functional.
Series [9] shares this target. Briefly: Activation of human Go protein alpha subunit expressed in Escherichia coli assessed as protein bound [35S]GTPgammaS levels at 5 uM by scintillation spectroscopy. In kind it is functional.
For series [10] the target is unchanged. Briefly: Activation of human Go protein alpha subunit expressed in Escherichia coli assessed as protein bound [35S]GTPgammaS levels at 50 uM by scintillation spectroscopy. In kind it is functional.
Series [11] has as its target Guanine nucleotide-binding protein G(i) subunit alpha-1 (Homo sapiens) (UniProt P63096). Kind of series: Activation of human Gi protein alpha1 subunit expressed in Escherichia coli assessed as protein bound [35S]GTPgammaS levels at 100 uM by scintillation spectroscopy. In kind it is functional.
Series [12] has as its target Guanine nucleotide-binding protein G(o) subunit alpha (Homo sapiens) (UniProt P09471). Kind of series: Activation of human Go protein alpha subunit expressed in Escherichia coli assessed as protein bound [35S]GTPgammaS levels at 100 uM by scintillation spectroscopy. In kind it is functional.
For series [13] the target is unchanged. Briefly: Activation of human Go protein alpha subunit expressed in Escherichia coli assessed as protein bound [35S]GTPgammaS levels at 10 uM by scintillation spectroscopy. Format: functional.
For series [14] the target is unchanged. Kind of series: Activation of human Go protein alpha subunit expressed in Escherichia coli assessed as protein bound [35S]GTPgammaS levels at 10 uM by scintillation spectroscopy relative to basal. Format: functional.

Calls of active or inactive are those of the source. The rule behind the calls is not given here.

Sequence of Guanine nucleotide-binding protein G(i) subunit alpha-1 (Homo sapiens) (P63096 whole entry): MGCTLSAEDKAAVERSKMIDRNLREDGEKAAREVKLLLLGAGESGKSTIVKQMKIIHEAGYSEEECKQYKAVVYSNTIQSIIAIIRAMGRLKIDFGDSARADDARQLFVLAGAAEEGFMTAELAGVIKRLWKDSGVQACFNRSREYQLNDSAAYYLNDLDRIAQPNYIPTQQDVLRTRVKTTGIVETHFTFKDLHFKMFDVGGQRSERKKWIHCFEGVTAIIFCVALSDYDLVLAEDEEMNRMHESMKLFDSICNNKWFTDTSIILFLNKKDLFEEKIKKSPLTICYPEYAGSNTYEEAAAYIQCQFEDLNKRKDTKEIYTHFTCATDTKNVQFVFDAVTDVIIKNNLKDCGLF
Sequence of Guanine nucleotide-binding protein G(o) subunit alpha (Homo sapiens) (P09471 2-354 limits assumed): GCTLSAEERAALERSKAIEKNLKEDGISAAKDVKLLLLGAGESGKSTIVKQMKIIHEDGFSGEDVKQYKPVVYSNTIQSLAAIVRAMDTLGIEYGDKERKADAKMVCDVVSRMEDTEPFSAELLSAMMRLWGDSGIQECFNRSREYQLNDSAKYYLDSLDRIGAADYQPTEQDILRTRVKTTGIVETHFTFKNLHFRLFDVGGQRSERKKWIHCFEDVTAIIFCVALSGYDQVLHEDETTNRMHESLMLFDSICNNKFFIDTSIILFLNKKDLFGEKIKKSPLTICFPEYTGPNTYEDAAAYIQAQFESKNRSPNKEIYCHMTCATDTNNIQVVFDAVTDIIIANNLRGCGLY

For the compound `CCCCCCCCCCCCCCCNC1CCN(CCN)CC1`, the CMC in series [1] worked out at 1 ×10⁻⁴ M. The outcome in series [2] was Active.
On to `CCCCCCCNN1CCNCC1`, for which the outcome in series [2] was inactive.
Regarding `c1ccc(CCCCN2CCC(C3CCNCC3)CC2)cc1`, the result in [2] was inactive.
The same measure, in the same setting: then `CCCCCNCC1CCNCC1`, with “inactive”; and `CCCCCCCCCCCCCCCN1CCC(C2CCN(C(=O)[C@@H](N)CCCCN)CC2)CC1`, with “Active”; and `CCCCCCCCCCCCCCCNC1CCN(CCNC(=O)[C@@H](N)CCCCN)CC1`, with “Active”.
Still for that read-out and setting: then `CCCCCCCCCN1CCC(C2CCNCC2)CC1`, with “inactive”.
On the same count and under the same terms, then `CCCCCCCCCCCCCCCNC1CCN(C(=O)[C@@H](N)CCCCN)CC1`, with “Active”; and `CCCCCNN1CCNCC1`, with “inactive”.
Regarding `CCCCCCCCCCCCCCCN1CCC(C2CCN(CCNC(=O)[C@@H](N)CCCCN)CC2)CC1`, the Activity in [3] stood at 19.9 fmol; in [4], 275 fmol; in series [5], 2990%; in series [6], 781 fmol; in [7], 33.3 fmol. The same compound had a CMC in series [1] of 1.41 ×10⁻⁴ M.
Take `CCCCCCCCCNN1CCNCC1`: in series [2], the outcome was inactive.
Consider `CCCCCCCCCCCCCCCNCC1CCN(CCNC=O)CC1`, for which the Activity in [3] stood at 8.9 fmol; in [4] it was 113 fmol; in series [5], 1170%; in series [6] it was 980 fmol; in series [7], 69.1 fmol.
For the compound `CCCCCCCCCCCCCCCN1CCC(NC(=O)[C@@H](N)CCCCN)CC1`, the Activity in series [3] was 23.7 fmol; in series [4], 157 fmol; in series [5] it was 1660%; in [6], 185 fmol; in series [7], 103 fmol.
Regarding `CCOCCOCCOCCN1CCC(C2CCNCC2)CC1`, the result in series [2] was inactive.
In the case of `CCCCCCCCCCCCCCCN1CCC(C2CCN(CCN)CC2)CC1`, the Activity in series [3] stood at 11.6 fmol; in series [4] it was 234 fmol; in series [5], 2550%; in series [6], 2300 fmol; in series [7], 78.7 fmol.
Regarding `CCOCCOCCOCCOCCNC1CCNCC1`, the outcome in series [2] was inactive.
The same measure, in the same setting: with `CCOCCOCCOCCNC1CCNCC1` the entry was “inactive”.
Still for that read-out and setting: then `CCCCCCCCCCCCCCC(=O)N1CCC(C2CCN(C(=O)[C@@H](N)CCCCN)CC2)CC1`, with “Active”; and `CCOCCOCCOCCOCCN1CCC(C2CCNCC2)CC1`, with “inactive”.
On to `c1ccc(CCCCNC2CCNCC2)cc1`, for which the result in [2] was inactive.
The same measure, in the same setting: with `CCCCCCCN1CCC(C2CCNCC2)CC1` the entry was “inactive”.
The same measure, in the same setting: then `CCOCCOCCOCCNCC1CCNCC1`, with “inactive”; and `c1ccc(CCCCNCC2CCNCC2)cc1`, with “inactive”.
Still for that read-out and setting: then `CCOCCOCCOCCNN1CCNCC1`, with “inactive”.
For the compound `CCCCCNC1CCNCC1`, the result in series [2] was inactive.
Regarding `CCCCCN1CCC(C2CCNCC2)CC1`, the result in series [2] was inactive.
The same measure, in the same setting: with `CCOCCOCCOCCOCCOCCN1CCC(C2CCNCC2)CC1` the entry was “inactive”.
For the compound `CCCCCCCCCCCCCCC(=O)N1CCC(C2CCN(CCN)CC2)CC1`, the Activity in series [3] is 30.3 fmol; in series [4], 87 fmol; in series [5], 877%; in [6], 103 fmol; in [7], 76.2 fmol.
For the compound `CCCCCCCCCNC1CCNCC1`, the outcome in series [2] was inactive.
Still for that read-out and setting: then `c1ccc(CCCCNN2CCNCC2)cc1`, with “inactive”.
Same read-out and setting: then `CCOCCOCCOCCOCCOCCNC1CCNCC1`, with “inactive”.
Regarding `CCCCCCCCCCCCCCCNC1CCNCC1`, the Activity came out at 15.4 fmol in series [3]; 102 fmol in [8]; 70.6 fmol in series [4]; 693% in [5]; 196 fmol in series [6]; 363 fmol in series [9]. Besides, the Activity in series [7] worked out at 49.5 fmol; in series [10], 1400 fmol; in series [11], 195 fmol; in [12], 1420 fmol; in [13], 636 fmol; in series [14], 668%. In addition, the CMC in series [1] stood at 1.44 ×10⁻⁴ M.
Consider `CCCCCCCNC1CCNCC1`, for which, in series [2], the outcome was inactive.

The record behind these values is ChEMBL document CHEMBL1137755, “[35S]GTP gamma S binding studies of amphiphilic drugs-activated Gi proteins: a caveat” (Bioorg Med Chem Lett, 2009).
